Measured values as given in paper PMC8501640, “Altered Env conformational dynamics as a mechanism of resistance to peptide-triazole HIV-1 inactivators” (Retrovirology, 2021).
*1 amine or outer side, *2 acyl side, *3 side chain or, on linkers, in order; H or OH if unused. Where a SMILES comes first, the peptide text is derived from it. Bridges are numbered along the chain shown (N, C = ends). [ ]: non-standard residue; d: D form. X1 = O=C([C@@H]1CC(n2cc([C]34[CH]5[CH]6[CH]7[CH]3[Fe]6754389%10[CH]4[CH]3[CH]8[CH]9[CH]4%10)nn2)CN1[*:1])[*:2]

Legend:
HxBc2 gp120 WT monomer = HxBc2 gp120 WT monomer (Human immunodeficiency virus type 1 group M subtype B, UniProt P04578); test: Isothermal titration calorimetry, WT gp120; assay type: binding, HIV-1; conditions: 25 °C
Procedure: (§1) Heats were obtained at 25 °C by injection of 8 μL of PT (100 μM) into a sample cell of a VP-ITC containing 1.4 mL recombinant HxBc2 gp120 (6–8 μM). Solid lines represent fits to a single site binding model.
(§2) The resulting heat changes upon injection were integrated over a time range of 240 s, and the obtained values were fit to a standard single site-binding model using Origin® software.

[1] = biological target: HxBc2 gp120 V255I monomer (Human immunodeficiency virus type 1 group M subtype B, UniProt P04578, V255I); test: Isothermal titration calorimetry, V255I gp120; assay type: binding, HIV-1
Procedure: as §1, §2

[2] = biological target: HxBc2 gp120 V255I/S143N monomer (Human immunodeficiency virus type 1 group M subtype B, UniProt P04578, S143N/V255I); test: Isothermal titration calorimetry, V255I/S143N gp120; assay type: binding, HIV-1; conditions: 25 °C
Procedure: as §1, §2

[3] = biological target: HIV-1 HxBc2 gp120 WT monomer (Human immunodeficiency virus type 1 group M subtype B, UniProt P04578); test: Surface plasmon resonance, WT gp120; assay type: binding
Procedure: (§3) SPR experiments were performed on a Biacore 3000 biosensor (Global Cytiva Lifesciences) at 25 °C using PBS-P (10 mM Phosphate, 150 mM NaCl, pH 7.4, 0.005% P-20) as the running buffer. A CM5 sensor chip was docked and derivatized by amine coupling with HIV-1HxBc2 WT and mutant gp120 subunits using freshly prepared 1:1 50 mM NHS (N-hydroxysuccinamide):200 mM EDC (1-ethyl-3-(3-(dimethylamino)propyl) carbodiimide). […] The equilibrium dissociation constant was calculated as KD = k−1/k1.
(§4) Rate constants k1 and k-1 are defined as they are in the 1:1 binding model, while k2 and k-2 are first order rate constants describing isomerization and de-isomerization, respectively. Equations describing the time course of the interactions can be found in Additional file 1: Method S1. For the fit, it was assumed that the states Env·PT and Env·PT^∗ had the same SPR signal. Rate constants were determined using a least-squares gradient-step algorithm coded in Visual Basic and implemented through Microsoft Excel.

[4] = biological target: HIV-1 HxBc2 gp120 V255I monomer (Human immunodeficiency virus type 1 group M subtype B, UniProt P04578, V255I); test: Surface plasmon resonance, V255I gp120; assay type: binding
Procedure: as §3, §4

[5] = biological target: HIV-1 HxBc2 gp120 V255I/S143N monomer (Human immunodeficiency virus type 1 group M subtype B, UniProt P04578, S143N/V255I); test: Surface plasmon resonance, V255I/S143N gp120; assay type: binding
Procedure: as §3, §4

[6] = test system: wild type NL4-3 Env on HEK293T cells; test: gp120 shedding analysis by flow cytometry, wild type Env; assay type: cell-based, HIV-1; conditions: WT NL4-3 Env on HEK293T cells; 37 °C, 2 h; mAb 35O22 flow cytometry; read-out: EC50 of induced gp120 shedding (intact Env trimers remaining)
Procedure: (§5) The measurements (mean fluorescence intensity) were obtained by flow cytometry using an anti-Env IgG (mAb 35O22) that recognizes a quaternary epitope at the gp120/gp41 interface.
(§6) The gp120 shedding assay was performed as described previously. Briefly, three million HEK293T cells per flask were transiently transfected with 4 μg of HIV-1 NL4-3 Env plasmid and transfection reagent FuGENE 6 (Promega). 5 mM EDTA in DPBS was used to detach cells at 24 h and cells were reseeded in 96-well plates with 50,000 cells per well. […] Cells were washed with fresh medium, detached with 5 mM EDTA, and then washed and resuspended in FC buffer (1% BSA and 1 mM EDTA in 10 mM PBS pH 7.4). 2% paraformaldehyde in DPBS was used to fix the cells for 15 min at room temperature. Cells were then washed and resuspended in the FC buffer three times. […] Cell counts and Env staining were assessed in counted cells on a Guava EasyCyte 5HT flow cytometry system (Millipore). Analyzed cells were subjected to forward/side scatter gating based on untreated control populations of identical transfection, and median fluorescence values were obtained using Guava InCyte 3.2 software. Data were analyzed in GraphPad Prism 9 using nonlinear regression fit with dose response-inhibitor equation (4 parameters).

[7] = test system: S143N NL4-3 Env on HEK293T cells; test: gp120 shedding analysis by flow cytometry, S143N Env; assay type: cell-based, HIV-1; conditions: S143N mutant Env trimer; 50-fold higher than the EC50 value for wild type Env
Procedure: as §5, §6

[8] = test system: V255I NL4-3 Env on HEK293T cells; test: gp120 shedding analysis by flow cytometry, V255I Env; assay type: cell-based, HIV-1
Procedure: as §5, §6

[9] = test system: V255I/S143N NL4-3 Env on HEK293T cells; test: gp120 shedding analysis by flow cytometry, V255I/S143N Env; assay type: cell-based, HIV-1
Procedure: as §5, §6

CEM-GFP cells = test: WST-1 cytotoxicity assay; assay type: cell-based; conditions: up to concentrations of 125 μM
Procedure: The cytotoxicity was determined on CEM-GFP cells via a colorimetric assay to measure the relative proliferation rates of cells in culture. […] After 18 h of incubation, the media containing compounds were discarded and treated with 10% (v/v) WST-1 (a tetrazolium salt) in fresh media for one hour at 37 °C. The cell viability was determined by measuring the absorbance at 450 nm using a Tecan Infinite F50 plate reader.
Figure S1. […] Data represent means and standard deviations of three independent experiments performed in triplicate.

BaL.01 viruses = test system: BaL.01 viruses; parameters: method as in PMID 24330857, PMID 26331669; conditions: ref [16], [21], read-out: EC50 of induced gp120 shedding; cited from earlier work

SMILES: CC[C@H](C)[C@@H]1NC(=O)[C@H](CC(N)=O)NC(=O)[C@@H](N)CC(=O)NCCCC[C@@H](C(N)=O)NC(=O)[C@H](Cc2c[nH]c3ccccc23)NC(=O)[C@@H]2CC(n3cc([C]45[CH]6[CH]7[CH]8[CH]4[Fe]786549%10%11[CH]5[CH]4[CH]9[CH]%10[CH]5%11)nn3)CN2C1=O (some centres unmarked) [AAR029b] (H-DNI[X1]WK-NH2; lactam 1-6 (inferred))
- ITC binding stoichiometry n (HxBc2 gp120 WT monomer): 1.1 ± 0.04
- ITC −TΔS (HxBc2 gp120 WT monomer): 18.8 ± 3.77 kJ/mol
- ITC binding stoichiometry n ([1]; V255I gp120 (HxBc2), 25 °C): 1.0 ± 0.01
- ITC −TΔS ([1]; V255I gp120 (HxBc2), 25 °C): 1.8 ± 1.26 kJ/mol
- absolute impact of V255I substitution on enthalpy (ΔH) and entropy (TΔS) ([1]; mutant vs wild type gp120, ITC): 14.6 to 18.8 kJ/mol
- ITC binding stoichiometry n [2]: 1.1 ± 0.04
- ITC −TΔS [2]: 4.18 ± 3.81 kJ/mol
- SPR k1 ([3]; PT association): 11 (M^−1 s^−1) × 10^–5
- SPR k-1 ([3]; PT dissociation): 8.3 (s^−1) × 10^3
- SPR k1 ([4]; V255I gp120, PT association): 5.4 (M^−1 s^−1) × 10^–5
- SPR k-1 ([4]; V255I gp120, PT dissociation): 130 (s^−1) × 10^3
- decrease in binding affinity (KD) by the V255I mutation, SPR ([4]; V255I vs WT gp120): 31 fold
- SPR k1 ([5]; PT association): 3.6 (M^−1 s^−1) × 10^–5
- SPR k-1 ([5]; PT dissociation): 110 (s^−1) × 10^3
- EC50 [6]: 0.249 ± 0.075 µM
- disruption of Env trimer (shedding) at high concentration [7]: only minimal disruption
- decrease in sensitivity to ligand-induced shedding compared to wild type Env [8]: greater than tenfold
- decrease in sensitivity to ligand-induced shedding compared to wild type Env [9]: greater than tenfold
- cytotoxicity (CEM-GFP cells): minimal
- EC50 (BaL.01 viruses): 0.315 µM
